Laboratory results taken from US7517857B2, “Immune-modulating peptide” (POSCO, priority 2002, dated 2009).
Where a SMILES comes first, the peptide text is derived from it. [ ]: non-standard residue; d: D form.

How the values were obtained:
[1] = biological target: T1, FPRL1 (Homo sapiens, UniProt P25090); assay: [Ca2+]i increase in FPRL1-expressing RBL-2H3 cells (fura-2); format: cell-based
T1 construct: expressed in transfected cells; host or cells: RBL-2H3 (rat basophilic leukemia) cells, G418-selected
T1 sequence (P25090 1-351): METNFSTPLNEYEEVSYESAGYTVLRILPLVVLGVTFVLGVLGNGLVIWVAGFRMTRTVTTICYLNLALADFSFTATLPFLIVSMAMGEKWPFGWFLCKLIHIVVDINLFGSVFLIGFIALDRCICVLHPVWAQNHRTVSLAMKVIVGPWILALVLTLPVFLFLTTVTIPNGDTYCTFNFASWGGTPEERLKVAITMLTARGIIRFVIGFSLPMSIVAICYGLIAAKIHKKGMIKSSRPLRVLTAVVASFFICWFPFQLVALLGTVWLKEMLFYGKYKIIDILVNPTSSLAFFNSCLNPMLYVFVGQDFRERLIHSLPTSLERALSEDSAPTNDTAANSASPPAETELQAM

[2] = biological target: T2, FPR (Homo sapiens, UniProt P21462); assay: Displacement of 125I-labeled WKYMVm binding to FPR (FPR-expressing RBL-2H3 cells); details: FIG. 2A
T2 construct: expressed in transfected cells; host or cells: RBL-2H3 (rat basophilic leukemia) cells, G418-selected
T2 sequence (P21462 1-350): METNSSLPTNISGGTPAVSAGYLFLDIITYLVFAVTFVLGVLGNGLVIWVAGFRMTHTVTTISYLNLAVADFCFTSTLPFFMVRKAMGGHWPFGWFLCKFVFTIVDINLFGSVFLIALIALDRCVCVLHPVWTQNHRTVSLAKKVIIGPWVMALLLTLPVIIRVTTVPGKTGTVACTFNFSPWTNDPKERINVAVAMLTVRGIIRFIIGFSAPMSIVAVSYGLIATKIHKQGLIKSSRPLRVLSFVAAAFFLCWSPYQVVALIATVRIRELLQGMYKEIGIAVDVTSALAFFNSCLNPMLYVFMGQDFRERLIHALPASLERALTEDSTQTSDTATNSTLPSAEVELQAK
Protocol: From the finding that some of the peptides (WKGMVm (SEQ ID NO: 1), WKRMVm (SEQ ID NO: 11), D-Met^6 substituted peptides) could not induce a cytosolic calcium increase, it was checked whether the peptides can bind to FPR or not. Displacement of ^125I-labeled WKYMVm binding to FPR or FPRL1 by the peptides was monitored. FPR-expressing RBL-2H3 cells were incubated with [^125I] WKYMVm in the absence or presence of increasing amounts of unlabeled WKYMVm or the peptides of SEQ ID NOs: 1 to 24.
A ligand binding analysis was performed as modified from the previous report (16). The radioiodinated WKYMVm (^125I-labeled) was purchased from NEN Lifesciences (Boston, Mass.). Briefly, FPR- or FPRL1-expressing RBL-2H3 cells were seeded into 1×10^5 cells per well of a 24-well plate and cultured overnight. After blocking the cells with a blocking buffer (33 mM HEPES, pH 7.5, 0.1% BSA in RPMI) for 2 hr, a single concentration of ^125I-labeled WKYMVm was added to cells with a binding buffer (PBS containing 0.1% BSA) in the absence or presence of 50 μM unlabelled peptides and incubated for 3 hr at 4° C. with continuous shaking. Then the samples were washed 5 times with ice-cold binding buffer, and 200 μl of lysis buffer (20 mM Tris, pH 7.5, 1% Triton X-100) was added to each well. After 20 min of lysis at room temperature, the lysates were collected. Bound ^125I-labeled WKYMVm was measured for radioactivity for a γ-ray counter.

[3] = system: CT26, colon carcinoma; assay: Tumor growth in CT26-injected Balb/c mice; format: in vivo; details: FIGS. 9A and 9B
Protocol: CT26, EL4 were maintained at 37° C. in a humidified 5% CO2 atmosphere in RPMA1640 medium supplemented with 20% (vol/vol) heat-inactivated fetal bovine serum. For animal experiments, the cells were passaged two to five times after re-growth from frozen stocks. Log phase CT26 cells were detached from tissue culture flasks with 0.25% trypsin and 0.03% EDTA. CT26 and EL4 were washed and resuspended in PBS immediately before injection.
In order to assess the antitumor effect of immuno-modulating peptide, Trp-Arg-Tyr-Met-Val-D-Met-CONH2, (WRYMVm; (SEQ ID NO: 4)), CT26, colon carcinoma was tested in Balb/c mice model. Tumor mass was measured in size every two days after 6 days from tumor cell inoculation.
To find the effective tumor-suppressing dose of WRYMVm, 0.1 μg/mouse, 0.25 μg/mouse, and 1 μg/mouse of WRYMVm were administered to CT26/Balb/c model. […] A similar phenomenon is easily found in chemotactic migration of leukocytes. In view of the fact that FPRL1, which is a target receptor for WRYMVm, is related to the chemotactic migration event, it is concluded that WRYMVm-induced antitumor effect might be derived from leukocyte infiltration event. Therefore, it is quite necessary to reveal the direct relationship between the WRYMVm-induced antitumor effect and the leukocyte infiltration event.

[4] = biological target: T1, FPRL1; assay: Akt phosphorylation in FPRL1-expressing RBL-2H3 cells (immunoblot); format: cell-based; details: 10 μM peptides 5 min (WKYMVm time course 1 μM)
Protocol: It is well known that activation of chemoattractant receptors induces Akt activation via PI3K (19). Stimulation of cells with the peptides, electrophoresis and immunoblot analysis were performed according to the same method as in Example 5.
FPR- or FPRL1-expressing RBL-2H3 cells were stimulated with 1 μM WKYMVm for various periods of time (FIG. 4A). Two cells were preincubated with a vehicle or 100 ng/ml of PTX (24 hr), 50 μM of LY294002 (15 min), 5 μM of GFX (15 min), 10 μM BAPTA/AM (60min), or 50 μM PD98059 (60 min) prior to treatment with 1 μM of WKYMVm (FIG. 4B). FPR- and FPRL1-expressing RBL2H3 cells were stimulated with 10 μM of WKYMVm and the present peptides for 2 min or 5 min, respectively (FIG. 4C). Each sample (30 μg of protein) was subjected to 10% SDS-PAGE and phosphorylated Akt was determined by immunoblot analysis with an anti-phospho-Akt antibody. A western blot analysis with an anti-Akt antibody was performed to confirm that the same amounts of samples were used for the experiments. The results are shown FIGS. 4A to 4C. Results of FIGS. 4A to 4C are the representative of 3 independent experiments.

| Structure (SMILES) | [Ca^2+]i increasing activity [1] | inhibition of [^125I] WKYMVm binding [2] | tumor growth in CT26-injected mice (figure legend) [3] | Akt phosphorylation [4] | concentration showing maximal [Ca^2+]i increase activity ([1]; data not shown) [nM] | EC50 (nM), intracellular calcium increase ([1]; fura-2 loaded) |
| --- | --- | --- | --- | --- | --- | --- |
| CSCC[C@H](NC(=O)CNC(=O)[C@H](CCCCN)NC(=O)[C@@H](N)Cc1c[nH]c2ccccc12)C(=O)N[C@H](C(=O)N[C@H](CCSC)C(N)=O)C(C)C [WKGMVm-NH2, Trp-Lys-Gly-Met-Val-D-Met-NH2] (H-WKGMV[dM]-NH2; N-terminus assumed) | showed [Ca^2+]i-increasing activity in FPRL1 cells, with a little lower affinity to FPRL1 | inhibited binding of [^125I] WKYMVm in a concentration-dependent manner |  |  |  |  |
| CSCC[C@H](NC(=O)[C@H](CCCNC(=N)N)NC(=O)[C@H](CCCCN)NC(=O)[C@@H](N)Cc1c[nH]c2ccccc12)C(=O)N[C@H](C(=O)N[C@H](CCSC)C(N)=O)C(C)C [WKRMVm-NH2, Trp-Lys-Arg-Met-Val-D-Met-NH2] (H-WKRMV[dM]-NH2; N-terminus assumed) |  | inhibited binding of [^125I] WKYMVm in a concentration-dependent manner | attenuates tumor growth |  |  |  |
| CSCC[C@H](NC(=O)[C@H](Cc1ccc(O)cc1)NC(=O)[C@H](CCCCN)NC(=O)[C@@H](N)Cc1c[nH]c2ccccc12)C(=O)N[C@H](C(=O)N[C@H](CCSC)C(N)=O)C(C)C [WKYMVm-NH2, Trp-Lys-Tyr-Met-Val-D-Met-NH2, reference compound] |  | inhibited binding of [^125I] WKYMVm in a concentration-dependent manner |  | stimulated Akt phosphorylation | 10 | inactive |
